Assays:
L1210 leukemia cells = experiment: Antitumor activity against L1210 leukemia in CDF1 mice (increase life span, survived ratio); type: in vivo, CDF1 male mice; conditions: for ILS (increase life span) / Survived ratio: i.p., once a day for 5 days; for ILS50 (50% increase life span dose): mouse, in vivo, ip, 43200 min; for Survived ratio: 30 days observation
Description: CDF1 male mice (age: 6 weeks) consisting of 6 per each group were used to the test. 1×10^5 L1210 leukemia cells were intraperitoneally inoculated into each mouse. Test compounds dissolved in a solution of 0.5% CMC-Na in physiological saline were intraperitoneally administered to mice once a day for 5 consecutive days from the next day of the inoculation. A 0.5% CMC-Na solution in physiological saline was administered to the control group. […] All of these compounds are known compounds and Comparative Compounds a-c were disclosed in U.S. Pat. No. 4,169,846.
Observation was continued for consecutive 30 days after the administration. Increase life span (ILS) was determined according to the following equation: […]
wherein T is the mean survival days of the treated groups, and C is the mean survival days of the control groups.
(§1) Therapeutic index of compounds of this invention was determined according to the following equation. [formula]

50% lethal dose (LD50) = conditions: in vivo
Description: as §1

Water solubility = type: physicochemical

Row | Compound | ILS (increase life span) (L1210 leukemia cells; 4.0 mg/kg) [%] | ILS (increase life span) (L1210 leukemia cells; 8.0 mg/kg) | ILS (increase life span) (L1210 leukemia cells; 16.0 mg/kg) | ILS (increase life span) (L1210 leukemia cells; 32.0 mg/kg) | ILS50 (50% increase life span dose) (L1210 leukemia cells) [mg/kg] | LD50 (50% lethal dose) (50% lethal dose (LD50)) [mg/kg] | Survived ratio (L1210 leukemia cells; 8.0 mg/kg) [%] | Survived ratio (L1210 leukemia cells; 16.0 mg/kg) [%] | Survived ratio (L1210 leukemia cells; 32.0 mg/kg) [%] | ILS (increase life span) (L1210 leukemia cells; 64.0 mg/kg) | Survived ratio (L1210 leukemia cells; 64.0 mg/kg) [%] | ILS (increase life span) (L1210 leukemia cells; 128.0 mg/kg) [%] | Survived ratio (L1210 leukemia cells; 128.0 mg/kg) [%] | ILS (increase life span) (L1210 leukemia cells; 0.5 mg/kg) [%] | ILS (increase life span) (L1210 leukemia cells; 1.0 mg/kg) [%] | ILS (increase life span) (L1210 leukemia cells; 2.0 mg/kg) [%] | Survived ratio (L1210 leukemia cells; 2.0 mg/kg) [%] | Survived ratio (L1210 leukemia cells; 4.0 mg/kg) [%] | Water solubility (Water solubility) [µg/mL]
1 | CC1C(=O)[O][Pt]2([NH]C3CCCCC3[NH]2)[O]C1=O (racemic) [Comparative Compound b, (trans-dl-1,2-diaminocyclohexane)methylmalonatoplatinum (II)] | 17 | 27% | 43% | 79% | 14.9 | 312.6 | – | – | – | – | – | – | – | – | – | – | – | – | –
2 | CCC1C(=O)[O][Pt]2([NH]C3CCCCC3[NH]2)[O]C1=O (racemic) [Comparative Compound c, (trans-dl-1,2-diaminocyclohexane)ethylmalonatoplatinum (II)] | 27 | 31% | 52% | 69% | 14.2 | 244.9 | – | – | – | – | – | – | – | – | – | – | – | – | –
3 | N.N.O=C([O-])C1(C(=O)[O-])CCC1.[Pt+2] [Carboplatin] | – | 27% | 29% | 43% | 31.2 | 200.0 | 0 | 0 | 0 | 70% | 0 | 25 | 0 | – | – | – | – | – | –
4 | N.N.[Cl][Pt][Cl] [Cisplatin] | 88 | – | – | – | 1.3 | – | – | – | – | – | – | – | – | 19 | 33 | 75 | – | – | –
5 | (trans-dl-1,2-diaminocyclohexane) diethylmalonatoplatinum (II) [Compound No. 2] | 61 | above 135% | above 124% | above 168% | 2.7 | 140.0 | 33 | 17 | 33 | – | – | – | – | – | – | 43 | 0 | 0 | 10000
6 | (trans-dl-1,2-diaminocyclohexane) dimethylmalonatoplatinum (II) [Compound No. 1] | 49 | above 136% | 112% | 130% | 3.4 | 140.0 | 17 | 0 | 0 | – | – | – | – | – | – | 40 | 0 | 0 | 8000
7 | (trans-dl-1,2-diaminocyclohexane)-malonatoplatinum (II) [Comparative Compound a] | 35 | 49% | 82% | 94% | 7.1 | 244.9 | 0 | 0 | 17 | above 108% | 17 | – | – | – | – | – | – | 0 | 500

From patent US5008419A, “Novel platinum complex” (SS Pharmaceutical Co., Ltd., priority 1988, dated 1991)
